pIC50: −log10 of the molar value.
Biological target: human recombinant BTK (Homo sapiens (Human), UniProt Q06187)
Test: BTK Enzymatic Activity Assay (Caliper-based kinase assay)
Assay type: biochemical
Settings: human recombinant BTK (0.5 nM), ATP (16 μM), peptide substrate (1 μM), room temperature for 3 h
Protocol: A Caliper-based kinase assay (Caliper Life Sciences, Hopkinton, Mass.) was used to measure inhibition of BTK kinase activity of a compound of the present disclosure. Serial dilutions of test compounds were incubated with human recombinant BTK (0.5 nM), ATP (16 μM) and a phosphoacceptor peptide substrate FAM-GEEPLYWSFPAKKK-NH2 (1 μM) at room temperature for 3 h. The reaction was then terminated with EDTA, final concentration 20 mM and the phosphorylated reaction product was quantified on a Caliper Desktop Profiler (Caliper LabChip 3000). Percent inhibition was calculated for each compound dilution and the concentration that produced 50% inhibition was calculated. This value is presented as the IC50.

Chain of human recombinant BTK (Q06187 whole entry): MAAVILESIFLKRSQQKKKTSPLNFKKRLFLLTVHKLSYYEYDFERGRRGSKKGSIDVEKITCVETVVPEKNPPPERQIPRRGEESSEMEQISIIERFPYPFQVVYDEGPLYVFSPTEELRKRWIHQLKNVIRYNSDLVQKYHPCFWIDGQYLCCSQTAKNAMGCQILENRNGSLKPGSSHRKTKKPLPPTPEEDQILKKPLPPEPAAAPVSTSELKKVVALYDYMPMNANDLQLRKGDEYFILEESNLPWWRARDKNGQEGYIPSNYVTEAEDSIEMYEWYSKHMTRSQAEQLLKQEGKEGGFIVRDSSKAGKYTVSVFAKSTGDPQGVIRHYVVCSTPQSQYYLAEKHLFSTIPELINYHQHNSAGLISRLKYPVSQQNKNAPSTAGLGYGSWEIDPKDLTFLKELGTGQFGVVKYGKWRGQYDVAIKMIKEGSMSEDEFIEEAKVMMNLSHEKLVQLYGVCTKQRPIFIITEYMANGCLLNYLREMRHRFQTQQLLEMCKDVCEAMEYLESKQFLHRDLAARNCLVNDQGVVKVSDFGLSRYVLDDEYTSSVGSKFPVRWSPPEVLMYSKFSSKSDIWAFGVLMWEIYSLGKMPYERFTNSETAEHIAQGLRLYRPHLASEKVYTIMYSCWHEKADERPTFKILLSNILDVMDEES

`CC1(C=C(C#N)C(=O)N2CCC[C@@H](n3nc(-c4ccc(Oc5ccccc5)cc4F)c4c(N)nccc43)C2)CCOCC1` [Compound 48, (R)-2-(3-(4-amino-3-(2-fluoro-4-phenoxyphenyl)-1H-pyrazolo[4,3-c]pyridin-1-yl)piperidine-1-carbonyl)-3-(4-methyltetrahydro-2H-pyran-4-yl)acrylonitrile] and `CC1(C=C(C#N)C(=O)N2CCC[C@@H](n3nc(-c4ccc(Oc5ccccc5)cc4)c4c(N)nccc43)C2)CCOCC1` [Compound 43, (R)-2-(3-(4-amino-3-(4-phenoxyphenyl)-1H-pyrazolo[4,3-c]pyridin-1-yl)piperidine-1-carbonyl)-3-(4-methyltetrahydro-2H-pyran-4-yl)acrylonitrile] are within 0.2 log units of each other in pIC50: 8.51 for the first, 8.70 for the second.

First: CC(C)(C=C(C#N)C(=O)N1CCC[C@@H](c2nc(-c3ccc(Oc4ccccc4)cc3F)c3c(N)nccn23)C1)N1CCN2C(=O)CC[C@@H]2C1 [Compound 63, 2-((R)-3-(8-amino-1-(2-fluoro-4-phenoxyphenyl)imidazo[1,5-a]pyrazin-3-yl)piperidine-1-carbonyl)-4-methyl-4-((R)-6-oxohexahydropyrrolo[1,2-a]pyrazin-2(1H)-yl)pent-2-enenitrile]
Second: CC(C)(C=C(C#N)C(=O)N1CCC[C@@H](c2nc(-c3ccc(Oc4ccccc4)cc3F)c3c(N)nccn23)C1)N1CCN2C(=O)CC[C@H]2C1 [Compound 62, 2-((R)-3-(8-amino-1-(2-fluoro-4-phenoxyphenyl)imidazo[1,5-a]pyrazin-3-yl)piperidine-1-carbonyl)-4-methyl-4-((S)-6-oxohexahydropyrrolo[1,2-a]pyrazin-2(1H)-yl)pent-2-enenitrile]
The pIC50 of the first is 0.39 log units higher: 9.05 for the first, 8.66 for the second. The first is the more potent here.

`CCN1CCN(C(C)(C)C=C(C#N)C(=O)N2CCC[C@@H](n3nc(-c4ccc(Oc5ccccc5)cc4F)c4c(N)nccc43)C2)CC1=O` [Compound 40, (R)-2-(3-(4-amino-3-(2-fluoro-4-phenoxyphenyl)-1H-pyrazolo[4,3-c]pyridin-1-yl)piperidine-1-carbonyl)-4-methyl-4-(4-ethyl-3-oxopiperazin-1-yl)pent-2-enenitrile] and `CCN1CCN(C(C)(C)C=C(C#N)C(=O)N2CCC[C@@H](n3nc(-c4ccc(Oc5ccccc5)cc4)c4c(N)nccc43)C2)CC1=O` [Compound 41, (R)-2-(3-(4-amino-3-(4-phenoxyphenyl)-1H-pyrazolo[4,3-c]pyridin-1-yl)piperidine-1-carbonyl)-4-(4-ethyl-3-oxopiperazin-1-yl)-4-methylpent-2-enenitrile] are the same in pIC50: 8.62 for the first, 8.62 for the second.

Compared with `CC(C)(C=C(C#N)C(=O)N1CCC[C@@H](n2nc(-c3ccc(Oc4ccccc4)cc3)c3c(N)nccc32)C1)N1CCN(C2COC2)CC1` [Compound 34, (R)-2-(3-(4-amino-3-(4-phenoxyphenyl)-1H-pyrazolo[4,3-c]pyridin-1-yl)piperidine-1-carbonyl)-4-methyl-4-(4-(oxetan-3-yl)piperazin-1-yl)pent-2-enenitrile], `CC(C)(C=C(C#N)C(=O)N1CCC[C@@H](n2nc(-c3ccc(C(=O)Nc4ccccn4)cc3)c3c(N)nccc32)C1)N1CCN(C2COC2)CC1` [Compound 47, (R)-4-(4-amino-1-(1-(2-cyano-4-methyl-4-(4-(oxetan-3-yl)piperazin-1-yl)pent-2-enoyl)piperidin-3-yl)-1H-pyrazolo[4,3-c]pyridin-3-yl)-N-(pyridin-2-yl)benzamide] is 0.33 log units lower in pIC50: 8.72 for the first, 8.39 for the second.

`CC(C)(C=C(C#N)C(=O)N1CCC[C@@H](c2nc(-c3ccc(Oc4ccccc4)cc3F)c3c(N)nccn23)C1)N1CCN(C2COC2)CC1` [Compound 2, (R)-2-(3-(8-amino-1-(2-fluoro-4-phenoxyphenyl)imidazo[1,5-a]pyrazin-3-yl)piperidine-1-carbonyl)-4-methyl-4-(4-(oxetan-3-yl)piperazin-1-yl)pent-2-enenitrile] and `CC(=O)N1CCN(C(C)(C)C=C(C#N)C(=O)N2CCC[C@@H](c3nc(-c4ccc(Oc5ccccc5)cc4F)c4c(N)nccn34)C2)CC1` [Compound 59, (R)-4-(4-acetylpiperazin-1-yl)-2-(3-(8-amino-1-(2-fluoro-4-phenoxyphenyl)imidazo[1,5-a]pyrazin-3-yl)piperidine-1-carbonyl)-4-methylpent-2-enenitrile] are within 0.2 log units of each other in pIC50: 8.72 for the first, 8.85 for the second.

`CN1CCN(C(=O)C(C#N)=CC2(C)CCOCC2)C[C@@H]1c1nc(-c2ccc(Oc3ccccc3)cc2)c2c(N)nccn12` [Compound 67, (R)-2-(3-(8-amino-1-(4-phenoxyphenyl)imidazo[1,5-a]pyrazin-3-yl)-4-methylpiperazine-1-carbonyl)-3-(4-methyltetrahydro-2H-pyran-4-yl)acrylonitrile] and `CN1CCN(C(=O)C(C#N)=CC(C)(C)C)C[C@@H]1c1nc(-c2ccc(Oc3ccccc3)cc2)c2c(N)nccn12` [Compound 66, (R)-2-(3-(8-amino-1-(4-phenoxyphenyl)imidazo[1,5-a]pyrazin-3-yl)-4-methylpiperazine-1-carbonyl)-4,4-dimethylpent-2-enenitrile] are within 0.2 log units of each other in pIC50: 9.70 for the first, 9.52 for the second.

`CC(C)(C=C(C#N)C(=O)N1CCC[C@H]1Cn1nc(-c2ccc(C(=O)Nc3ccccn3)cc2)c2c(N)nccc21)N1CCN(C2COC2)CC1` [Compound 15, (S)-4-(4-amino-1-((1-(2-cyano-4-methyl-4-(4-(oxetan-3-yl)piperazin-1-yl)pent-2-enoyl)pyrrolidin-2-yl)methyl)-1H-pyrazolo[4,3-c]pyridin-3-yl)-N-(pyridin-2-yl)benzamide] and `CN1CCN(C(C)(C)C=C(C#N)C(=O)N2CCC[C@H]2Cn2nc(-c3ccc(C(=O)Nc4ccccn4)cc3)c3c(N)nccc32)CC1` [Compound 20, (S)-4-(4-amino-1-((1-(2-cyano-4-methyl-4-(4-methylpiperazin-1-yl)pent-2-enoyl)pyrrolidin-2-yl)methyl)-1H-pyrazolo[4,3-c]pyridin-3-yl)-N-(pyridin-2-yl)benzamide] are within 0.2 log units of each other in pIC50: 7.65 for the first, 7.72 for the second.

`CC(C)(C=C(C#N)C(=O)N1CCC[C@@H](c2nc(-c3ccc(Oc4ccccc4)cc3)c3c(N)nccn23)C1)N1CCN2C(=O)CC[C@@H]2C1` [Compound 65, 2-((R)-3-(8-amino-1-(4-phenoxyphenyl)imidazo[1,5-a]pyrazin-3-yl)piperidine-1-carbonyl)-4-methyl-4-((R)-6-oxohexahydropyrrolo[1,2-a]pyrazin-2(1H)-yl)pent-2-enenitrile] and `CC(C)(C=C(C#N)C(=O)N1CCC[C@@H](c2nc(-c3ccc(Oc4ccccc4)cc3)c3c(N)nccn23)C1)N1CCN2C(=O)CC[C@H]2C1` [Compound 64, 2-((R)-3-(8-amino-1-(4-phenoxyphenyl)imidazo[1,5-a]pyrazin-3-yl)piperidine-1-carbonyl)-4-methyl-4-((S)-6-oxohexahydropyrrolo[1,2-a]pyrazin-2(1H)-yl)pent-2-enenitrile] are within 0.2 log units of each other in pIC50: 9.22 for the first, 9.10 for the second.

`CC(C)(C=C(C#N)C(=O)N1CCC[C@@H](n2nc(-c3ccc(C(=O)Nc4cc(F)ccn4)cc3)c3c(N)nccc32)C1)N1CCN(C2COC2)CC1` [Compound 50, (R)-4-(4-amino-1-(1-(2-cyano-4-methyl-4-(4-(oxetan-3-yl)piperazin-1-yl)pent-2-enoyl)piperidin-3-yl)-1H-pyrazolo[4,3-c]pyridin-3-yl)-N-(4-fluoropyridin-2-yl)benzamide] and `CN1CCN(C(C)(C)C=C(C#N)C(=O)N2CCC[C@@H](n3nc(-c4ccc(C(=O)Nc5ccccn5)cc4)c4c(N)nccc43)C2)CC1` [Compound 45, (R)-4-(4-amino-1-(1-(2-cyano-4-methyl-4-(4-methylpiperazin-1-yl)pent-2-enoyl)piperidin-3-yl)-1H-pyrazolo[4,3-c]pyridin-3-yl)-N-(pyridin-2-yl)benzamide] are within 0.2 log units of each other in pIC50: 8.38 for the first, 8.34 for the second.

Compared with `CCN1CCN(C(C)(C)C=C(C#N)C(=O)N2CCC[C@H]2Cn2nc(-c3ccc(Oc4ccccc4)cc3F)c3c(N)nccc32)CC1=O` [Compound 31, (S)-2-(2-((4-amino-3-(2-fluoro-4-phenoxyphenyl)-1H-pyrazolo[4,3-c]pyridin-1-yl)methyl)pyrrolidine-1-carbonyl)-4-(4-ethyl-3-oxopiperazin-1-yl)-4-methylpent-2-enenitrile], `CN1CCN(C(C)(C)C=C(C#N)C(=O)N2CCC[C@@H](c3nc(-c4ccc(Oc5ccccc5)cc4)c4c(N)nccn34)C2)CC1=O` [Compound 52, (R)-2-(3-(8-amino-1-(4-phenoxyphenyl)imidazo[1,5-a]pyrazin-3-yl)piperidine-1-carbonyl)-4-methyl-4-(4-methyl-3-oxopiperazin-1-yl)pent-2-enenitrile] is 0.80 log units higher in pIC50: 7.94 for the first, 8.74 for the second. The second is the more potent here.

`CC1(C=C(C#N)C(=O)N2CCC[C@@H](n3nc(-c4ccc(Oc5ccccc5)cc4F)c4c(N)nccc43)C2)CCN(C2COC2)CC1` [Compound 49, (R)-2-(3-(4-amino-3-(2-fluoro-4-phenoxyphenyl)-1H-pyrazolo[4,3-c]pyridin-1-yl)piperidine-1-carbonyl)-3-(4-methyl-1-(oxetan-3-yl)piperidin-4-yl)acrylonitrile] and `CC1(C=C(C#N)C(=O)N2CCC[C@@H](c3nc(-c4ccc(Oc5ccccc5)cc4F)c4c(N)nccn34)C2)CCOCC1` [Compound 53, (R)-2-(3-(8-amino-1-(2-fluoro-4-phenoxyphenyl)imidazo[1,5-a]pyrazin-3-yl)piperidine-1-carbonyl)-3-(4-methyltetrahydro-2H-pyran-4-yl)acrylonitrile] are within 0.2 log units of each other in pIC50: 8.74 for the first, 8.70 for the second.

`CN(C1COC1)C(C)(C)C=C(C#N)C(=O)N1CCC[C@@H](n2nc(-c3ccc(C(=O)Nc4ccccn4)cc3)c3c(N)nccc32)C1` [Compound 46, (R)-4-(4-amino-1-(1-(2-cyano-4-methyl-4-(methyl(oxetan-3-yl)amino)pent-2-enoyl)piperidin-3-yl)-1H-pyrazolo[4,3-c]pyridin-3-yl)-N-(pyridin-2-yl)benzamide] gave a pIC50 of 8.68.

— patent US11155544B2, “Heterocycle comprising tyrosine kinase inhibitors” (Principia Biopharma Inc., priority 2015, dated 2021)
